Reference: patent US8293979B2, “Weed controller metabolism proteins, genes, thereof and use of the same” (Sumitomo Chemical Company, Limited, priority 2001, dated 2012)

Experiments:
[1] = tested on: Streptomyces afghaniensis IFO12831; experiment: Metabolism of compound (II) by a microorganism; type: in vitro ADME; settings: compound (II) at 100 ppm, 7 to 8 days at 30° C.
Procedure: (§1) The HPLC for content analysis in Examples 1, 41 and 42 and fraction purification of the compound was conducted under the conditions shown below.
(§2) The various microorganisms shown in Tables 1 and 2 were grown in ISP2 agar medium (1.0% (w/v) malt extract, 0.4% (w/v) yeast extract, 0.4% (w/v) glucose, 2.0% (w/v) agar, pH 7.3). A “loopful” of the each microorganism was added to TGY medium (0.5% (w/v) tryptone, 0.5% (w/v) yeast extract, 0.1% (w/v) glucose, 0.01% (w/v) KH2PO4, pH 7.0) and incubated with shaking at 30° C. for 2 to 4 days. One-tenth milliliter (0.1 ml) of the obtained culture was incubated with shaking in 3 ml of sporulation medium (0.1% (w/v) of meat extract, 0.2% (w/v) tryptose, 1% glucose, pH 7.1) containing compound (II) at 100 ppm for 7 to 8 days at 30° C. Fifty microliters (50 μl) of 2N HCl was added to the resulting culture and this was extracted with 3 ml of ethyl acetate. The obtained ethyl acetate layer was analyzed on the HPLC. The concentration of compound (II) was reduced (column retention time of 23.9 minutes) and new peaks were detected for compounds at retention times of 21.6 minutes and 22.2 minutes (each referred to as metabolite (I) and metabolite (II)).

[2] = tested on: Streptomyces argenteolus var. toyonakensis ATCC21468; experiment: Metabolism of compound (II) by a microorganism; type: in vitro ADME; settings: compound (II) at 100 ppm, 7 to 8 days at 30° C.
Procedure: as §1, §2

[3] = tested on: Streptomyces globisporus subsp. globisporus ATCC21903; experiment: Metabolism of compound (II) by a microorganism; type: in vitro ADME; settings: compound (II) at 100 ppm, 7 to 8 days at 30° C.
Procedure: as §1, §2

[4] = tested on: Streptomyces griseus ATCC10137; experiment: Metabolism of compound (II) by a microorganism; type: in vitro ADME; settings: compound (II) at 100 ppm, 7 to 8 days at 30° C.
Procedure: as §1, §2

[5] = tested on: Streptomyces griseus ATCC15395; experiment: Metabolism of compound (II) by a microorganism; type: in vitro ADME; settings: compound (II) at 100 ppm, 7 to 8 days at 30° C.
Procedure: as §1, §2

[6] = tested on: Streptomyces griseus IFO3102; experiment: Metabolism of compound (II) by a microorganism; type: in vitro ADME; settings: compound (II) at 100 ppm, 7 to 8 days at 30° C.
Procedure: as §1, §2

[7] = tested on: Streptomyces nogalater IFO13445; experiment: Metabolism of compound (II) by a microorganism; type: in vitro ADME; settings: compound (II) at 100 ppm, 7 to 8 days at 30° C.
Procedure: as §1, §2

[8] = tested on: Streptomyces phaeochromogenes IFO12898; experiment: Metabolism of compound (II) by a microorganism; type: in vitro ADME; settings: compound (II) at 100 ppm, 7 to 8 days at 30° C.
Procedure: as §1, §2

[9] = tested on: Streptomyces purpurascens ATCC25489; experiment: Metabolism of compound (II) by a microorganism; type: in vitro ADME; settings: compound (II) at 100 ppm, 7 to 8 days at 30° C.
Procedure: as §1, §2

[10] = tested on: Streptomyces roseochromogenes ATCC13400t; experiment: Metabolism of compound (II) by a microorganism; type: in vitro ADME; settings: compound (II) at 100 ppm, 7 to 8 days at 30° C.
Procedure: as §1, §2

[11] = tested on: Streptomyces roseochromogenus ATCC21895; experiment: Metabolism of compound (II) by a microorganism; type: in vitro ADME; settings: compound (II) at 100 ppm, 7 to 8 days at 30° C.
Procedure: as §1, §2

[12] = tested on: Blackgrass; experiment: Herbicidal activity test, foliage treatment; type: in vivo, Alopercurus myosuroides; design: key: 0: situations in which the condition of sprouting or vegetation at the time of examination of the plant utilized for the test was compared with and showed totally or substantially no difference with that of the untreated application; 10: situations in which the plant completely withered or the sprouting or vegetation was completely suppressed; settings: sprayed onto the foliage of plants cultivated 10 days, investigated after 16 days in a greenhouse
Procedure: Soil was packed into a round plastic pot having a diameter of 10 cm and depth of 10 cm. Barnyardgrass, Blackgrass, Ivyleaf morningglory were seeded and cultivated in a greenhouse for 10 days. Five (5) parts of the test compound, 6 parts of sorpol3005X (Toho Chemical Company) and 89 parts of xylene were well mixed to produce an emulsion. A certain amount thereof was diluted with water containing 0.1% (v/v) of a sticking agent at a proportion of 1000 L for 1 hectare and was spread uniformly with a spray-gun onto the all sides of the foliage from above the plant cultivated in the above pot. After cultivating the plants for 16 days in a greenhouse, the herbicidal activity of the test compound was investigated.
In the above Tables 3 and 4, the strength of the herbicidal activity is shown stepwise as 0, 1, 2, 3, 4, 5, 6, 7, 8, 9, and 10.

[13] = tested on: present invention protein (A24); experiment: Detection of the ability to convert compound (II) to compound (III), E. coli pKSN1589BF extract; type: in vitro ADME, Streptomyces rutgersensis IFO 15875T; settings: 3 ppm of compound (II) labeled with 14C, components A, B, 10 minutes at 30° C.
Procedure: (§3) Reaction solutions of 30 μl were prepared and maintained for 10 minutes at 30° C. The reaction solutions consisted of a 0.1M potassium phosphate buffer (pH7.0) containing 3 ppm of compound (II) labeled with ^14C, 2 mM of β-NADPH (hereinafter, referred to as “component A”) (Oriental Yeast Company), 2 mg/ml of a ferredoxin derived from spinach (hereinafter referred to as “component B”) (Sigma Company), 0.1 U/ml of ferredoxin reductase (hereinafter, referred to as “component C”) (Sigma Company) and 23 μl of the supernatant fraction recovered in Example 32(2). Similarly to Example 4(3), the reaction solutions after the maintenance were extracted with ethyl acetate and the extracted layers were TLC analyzed. […] A spot corresponding to compound (III) was detected from the reaction solution containing E. coli pKSN849AF extract. In contrast, such a spot was not detected from the reaction solution containing E. coli pKSN2 extract.
(§4) Similarly to Example 32(3), reaction solutions of 30 μl were prepared and maintained for 10 minutes at 30° C. […] The reaction solutions after the maintenance were extracted with ethyl acetate and the extracted layers were TLC analyzed. […] A spot corresponding to compound (III) was detected from the reaction solution containing E. coli pKSN1589BF extract. In contrast, such a spot was not detected from the reaction solution containing E. coli pKSN2 extract.

[14] = tested on: present invention protein (A25); experiment: Detection of the ability to convert compound (II) to compound (III), E. coli pKSN1609F extract; type: in vitro ADME, Streptomyces steffisburgensis IFO 13446T; settings: 3 ppm of compound (II) labeled with 14C, components A, B, 10 minutes at 30° C.
Procedure: as §3
as §4, with “pKSN1609F” for “pKSN1589BF”

With `C[C@@H](Oc1cc(-n2c(=O)cc(C(F)(F)F)n(C)c2=O)c(F)cc1Cl)C(=O)O` [compound (II)] the “concentration of compound (II)” value [1] was 80.6 ppm, the “concentration of compound (II)” value [2] was 13.0 ppm and the “concentration of compound (II)” value [3] was 79.9 ppm. The “concentration of compound (II)” value [4] was 65.6 ppm, the “concentration of compound (II)” value [5] was 75.2 ppm and the “concentration of compound (II)” value [6] was 22.6 ppm. For the same molecule, the “concentration of compound (II)” value [7] was 12.8 ppm, the “concentration of compound (II)” value [8] was 46.4 ppm and the “concentration of compound (II)” value [9] was 70.9 ppm. The “concentration of compound (II)” value [10] was 71.8 ppm, the “concentration of compound (II)” value [11] was 74.2 ppm and the “Herbicidal Activity Blackgrass” value ([12]; 125 g/ha) was 10. For the same molecule, the “Herbicidal Activity Blackgrass” value ([12]; 500 g/ha) was 10, the “spot corresponding to compound (III) labeled with 14C (TLC)” value [13] was “detected” and the “spot corresponding to compound (III) labeled with 14C (TLC)” value [14] was “detected”.
